According to patent US20040234981A1, “Method of determining dna base sequence” (priority 2001, published 2004):
Where “and” joins values, the source holds several entries; their conditions need not be identical. Equal values may be shown once.

Legend:
3′-dATP [1] = experiment: Test (2): 3′-dATP added during in vitro transcription with Biotin-labeled CTP, chemoluminescent signal detection; assay type: biochemical; details: 3′-dATP concentration 0.00125 mM, wild form taken as 1, average of three runs
Description: (§1) The ability to incorporate 3′-dATP of the Δ type enzyme of purified T7 RNA polymerase was compared to that of the wild type and F644Y mutation.
In this method, 3′-dATP was added during an in vitro transcription reaction and the synthesis level was determined by comparison with synthesis impairment. This will be described in greater detail. The template employed was pBluescriptII (Stratagene) pretreated with the restriction enzyme ScaI (made by Nippon Gene). The reaction conditions were: 40 mM Tris-HCl, pH 8.0, 25 mM NaCl, 8 mM MgCl2, 2 mM spermidine-(HCl)3, and 5 mM DTT. The concentration of ribonucleotides rATP, rCTP, rGTP, and rUTP was 0.5 mM. A 0.1 mM quantity of Biotin-labeled CTP was added and 3′-dATP was added in ranges of 0.00125 mM, 0.0025 mM, and 0.005 mM. A 25 U quantity of enzymes purified as set forth above were added to 10 μL of this solution and the reaction was conducted for 60 min at 37° C. At the conclusion of the reaction, 1 μL of 10× gel loading buffer (1 mM EDTA, 1% SDS, 50% glycerol, and 0.05% BPB) was added. The entire solution was then subjected to electrophoresis in a 1% modified formamide gel. At the conclusion of electrophoresis, northern hybridization was conducted, the synthesized product was transcribed onto a nylon membrane, and signal detection was conducted based on a chemoluminescent substrate according to a protocol of anti-SA-AP antibody (made by Oriental Yeast Co., diluted 20,000-fold) and CDP-Star™ (made by Roche Co.). A Fluoro S Multiimager (BioRad Co.) and Multianalyst, an attached image analyzing software package, were then employed to determine the level of the signal detected.

3′-deoxy nucleotide = details: Izawa, M., et al. J. Biol. Chem., 273 (23): 14242 (1998); cited from earlier work
[2] = system: fluorescent-labeled 3′-deoxynucleotide; experiment: Ability to incorporate fluorescent-labeled 3′-deoxynucleotide, fluorescent signal intensity on ABI 377 XL Sequencer; assay type: biochemical; details: for (1) Average signal intensity U: Bodipy(564/570)-3′dUTP; for (1) Average signal intensity U / (1) Average signal intensity C / (1) Average signal intensity G / (1) Average signal intensity A: 100 units of enzyme (50 units for F644Y/Δ1); for (1) Average signal intensity C: Bodipy(581/591)-3′dCTP; for (1) Average signal intensity G: Bodipy(FL)-3′dGTP; for (1) Average signal intensity A: Bodipy(R6G)-3′dATP; for (2) Signal intensity per unit of enzyme G: conversion of (1) per unit of enzyme; for Signal intensity per unit of enzyme A, value in parentheses relative to wild enzyme / Signal intensity per unit of enzyme C, value in parentheses relative to wild enzyme / Signal intensity per unit of enzyme G, value in parentheses relative to wild enzyme / Signal intensity per unit of enzyme U, value in parentheses relative to wild enzyme: relative to a value of 1 for the signal intensity of wild enzyme
Description: A comparison was conducted of the ability to incorporate florescent-labeled 3′-deoxynucleotide of Δ-type enzyme of purified T7 RNA polymerase.
This method was conducted in accordance with the method of Sasaki et al. (Sasaki, N., et al. Gene, 222(1): 17-24 (1998)). In greater detail, pBluescriptII DNA was employed as template. A solution obtained by mixing Bodipy(R6G)-3′dATP, Bodipy(FL)-3′dGTP, Bodipy(581/591)-3′dCTP, Bodipy(564/570)-3′dUTP, ATP, GTP, CTP, and UTP in prescribed proportions was employed to conduct reactions differing only with regard to the T7 RNA polymerase employed. The enzymes employed were 100 units of T7 RNA polymerase (wild type) and T7 RNA polymerase F644Y; and 50 units of T7 RNA polymerase F644Y/Δ1. The reaction product was subjected to electrophoresis with an ABI 377 XL Sequencer. The average value of the fluorescent signal intensity was compared for each nucleotide.
Column (2) is a conversion of the value of (1) per unit of enzyme. Numbers shown in parentheses denote values relative to a value of “1” for the signal intensity of wild enzyme. […] Since the ABI 377 XL Sequencer is not a device for quantitative analysis, and operations is conducted on an extremely small amount of samples, large errors are to be expected.

3′-dATP [3] = experiment: Test (1): 3′-dATP added during in vitro transcription, amount of RNA synthesized (SYBER Green II gel image); assay type: biochemical; details: 3′-dATP concentration 0.024 mM, wild form of T7 RNA polymerase taken as 1, inverse of RNA synthesis level
Description: as §1
In this method, 3′-dATP was added during an in vitro transcription reaction and the synthesis level was determined by comparison with synthesis impairment. This will be described in greater detail. The template employed was pBluescriptII (Stratagene) pretreated with the restriction enzyme ScaI (made by Nippon Gene). The reaction conditions were: 40 mM Tris-HCl, pH 8.0, 25 mM NaCl, 8 mM MgCl2, 2 mM spermidine-(HCl)3, and 5 mM DTT. The concentration of nucleotides ATP, CTP, GTP, and UTP was 0.5 mM. Of these, ATP was replaced with 3′-dATP (Sigma) in ranges of 0.006 mM, 0.008 mM, 0.012 mM, and 0.024 mM. The above purified enzymes were added to 20 μL of this solution and the reaction was conducted for 30 to 60 min at 37° C. At the conclusion of the reaction, 4 μL of 5× gel loading buffer was added (15% Ficoll, 0.1% BPB, 0.1% XC, 0.5% SDS, and 0.1 M EDTA). The entire solution was then subjected to electrophoresis in a 1% modified agarose gel containing formaldehyde. At the conclusion of electrophoresis, 10,000-fold dilution was conducted with SYBER Green II (made by Molecular Probe Co.) and dying was conducted for 20 to 40 min according to a protocol of addition to the product. A Fluoro S Multiimager (BiORad Co.) was then employed to irradiate ultraviolet radiation and pick up the fluorescent image. Multianalyst, an attached image analyzing software package, was used to determine the amount of RNA that had been synthesized from the image picked up. The various values of the results were compared. An increase in ability to incorporate 3′-dATP should result in a drop in the synthesis level. Accordingly, a comparison was made with a control, and the inverse thereof was employed as indicator of how readily 3′-dATP was incorporated.

(2) Signal intensity per unit of enzyme G [2]	Signal intensity per unit of enzyme A, value in parentheses relative to wild enzyme [2]	Signal intensity per unit of enzyme C, value in parentheses relative to wild enzyme [2]	Signal intensity per unit of enzyme G, value in parentheses relative to wild enzyme [2]	Signal intensity per unit of enzyme U, value in parentheses relative to wild enzyme [2]	Molecule	Relative ability to incorporate 3′-dATP (3′-dATP [1])	Relative ability to incorporate 3′-dATP (3′-dATP [1]; listed as F644Y)	Increase in ability to incorporate 3′-deoxy nucleotide relative to the corresponding wild form (3′-deoxy nucleotide)	(1) Average signal intensity U [2]	(1) Average signal intensity C [2]	(1) Average signal intensity G [2]	(1) Average signal intensity A [2]	Relative ability to incorporate 3′-dATP (3′-dATP [3])	Relative ability to incorporate 3′-dATP (3′-dATP [1]; listed as F644Y/Δ1)	Relative ability to incorporate 3′-dATP (3′-dATP [1]; listed as T7 RNA polymerase F644Y/Δ 1)
2.0	(1.1)	(0.9)	(0.9)	(1.1)	T7 RNA polymerase F644Y: mutant T7 RNA polymerase, tyrosine substituted for phenylalanine at residue 644; plasmid pT7RF644Y	1.20 ± 0.3	1.20±0.3 and 1.20	about fivefold	134	136	199	74	1.45	–	–
8.92	(2.3)	(2.2)	(4.0)	(2.8)	T7 RNA polymerase F644Y/Δ1: T7 RNA polymerase F644Y deficient in amino acids 172 and 173; plasmid pT7RF644Y/Δ1, FERM BP-7619 (protein, UniProt P00573 1-883, looked up, variant F644Y del172-173) T7 RNA polymerase: MNTINIAKNDFSDIELAAIPFNTLADHYGERLAREQLALEHESYEMGEARFRKMFERQLKAGEVADNAAAKPLITTLLPKMIARINDWFEEVKAKRGKRPTAFQFLQEIKPEAVAYITIKTTLACLTSADNTTVQAVASAIGRAIEDEARFGRIRDLEAKHFKKNVEEQLNVGHVYKKAFMQVVEADMLSKGLLGGEAWSSWHKEDSIHVGVRCIEMLIESTGMVSLHRQNAGVVGQDSETIELAPEYAEAIATRAGALAGISPMFQPCVVPPKPWTGITGGGYWANGRRPLALVRTHSKKALMRYEDVYMPEVYKAINIAQNTAWKINKKVLAVANVITKWKHCPVEDIPAIEREELPMKPEDIDMNPEALTAWKRAAAAVYRKDKARKSRRISLEFMLEQANKFANHKAIWFPYNMDWRGRVYAVSMFNPQGNDMTKGLLTLAKGKPIGKEGYYWLKIHGANCAGVDKVPFPERIKFIEENHENIMACAKSPLENTWWAEQDSPFCFLAFCFEYAGVQHHGLSYNCSLPLAFDGSCSGIQHFSAMLRDEVGGRAVNLLPSETVQDIYGIVAKKVNEILQADAINGTDNEVVTVTDENTGEISEKVKLGTKALAGQWLAYGVTRSVTKRSVMTLAYGSKEYGFRQQVLEDTIQPAIDSGKGLMFTQPNQAAGYMAKLIWESVSVTVVAAVEAMNWLKSAAKLLAAEVKDKKTGEILRKRCAVHWVTPDGFPVWQEYKKPIQTRLNLMFLGQFRLQPTINTNKDSEIDAHKQESGIAPNFVHSQDGSHLRKTVVWAHEKYGIESFALIHDSFGTIPADAANLFKAVRETMVDTYESCDVLADFYDQFADQLHESQLDKMPALPAKGNLNLRDILESDFAFA	–	–	–	332	317	446	156	15.5	2.30±0.3 and 2.30	2.30 ± 0.3
